Results reported in patent US4990521A, “4-(aroylamino)piperidine-butanimide derivatives” (Janssen Pharmaceutica, priority 1989, dated 1991).

Experiments:
[1] = Tail Withdrawal Test in Rats (undesired central effects); format: in vivo; settings: oral, tail in 55° C. water, suppression of withdrawal response exceeding 10 seconds in 50% of animals, fasted male Wistar rats; for ED50: Rattus norvegicus
Description: Male Wistar rats were fasted overnight. Each animal was treated orally with a dose level of the compound to be tested. The thus treated rats Were put into individual restraining cages. At various time periods after administration, the lower 5 cm portion of the tail was immersed into a cup filled with water at a constant temperature of 55° C. The typical tail withdrawal response was evaluated during a 10 seconds period after the immersion. ED50 values in mg/kg body weight were determined as that dose of the test compound capable of suppressing in 50% of the tested animals the typical tail withdrawal response during a time period exceeding 10 seconds. Said ED50 values obtained for the compounds of the present invention are gathered in Table 1 column two.

[2] = Ricinus Oil Test in Rats (antidiarrheal activity); format: in vivo; settings: compound 1 hour before 1 ml ricinus oil orally, no diarrhea in 50% of animals 1 hour after ricinus oil, fasted female Wistar rats; for ED50: Rattus norvegicus, po, 1 h; for Ricinus Oil Test ED50: oral, 60 min
Source text: The use of the compounds of formula (I), their N-oxide forms, pharmaceutically acceptable acid-addition salts and stereoisomeric forms thereof in the method of the present invention is based on their useful antidiarrheal activity. This property is clearly evidenced by the experimental data obtained in, for example, the "Ricinus oil Test in Rats". […] By virtue of their useful antidiarrheal activity, it is evident that the compounds of formula (I), their N-oxide forms, pharmaceutically acceptable acid addition salts and stereoisomeric forms can be used in the treatment of diarrhea.
Female Wistar rats were fasted overnight. Each animal was treated orally with a dose level of the compound to be tested. One hour thereafter, the animal received 1 ml of ricinus oil orally. Each animal was kept in an individual cage and 1 hour after the ricinus oil treatment, the presence or absence of diarrhea was noted. The ED50 value was determined as that dose in mg/kg body weight, at which no diarrhea was present in 50% of the tested animals. Said ED50 -values for the compounds of the present invention can be found in the first column of Table 1.

| Structure (SMILES) | ED50 [1] | ED50 [2] | Ricinus Oil Test ED50 [2] | Tail Withdrawal Test ED50 [1] |
| --- | --- | --- | --- | --- |
| CC(CC(C(=O)N(C)C)(c1ccccc1)c1ccccc1)N1CC[C@@H](NC(=O)c2cccc(C(F)(F)F)c2)[C@H](O)C1 (relative stereo) [Compound 1, trans-3-hydroxy-N,N,γ-trimethyl-α,α-diphenyl-4-[[3-(trifluoromethyl)benzoyl]amino]-1-piperidinebutanamide] | > 160 mg/kg | 0.15 mg/kg |  |  |
| CC(CC(C(=O)N(C)C)(c1ccccc1)c1ccccc1)N1CC[C@@H](NC(=O)c2ccc(Cl)c(Cl)c2)[C@H](O)C1 (relative stereo) [Compound 2] | > 160 mg/kg | 0.63 mg/kg |  |  |
| CC(CC(C(=O)N(C)C)(c1ccccc1)c1ccccc1)N1CC[C@@H](NC(=O)c2c(Cl)cccc2Cl)[C@H](O)C1 (relative stereo) [Compound 5] | ≥ 40 mg/kg | 0.31 mg/kg |  |  |
| CC(CC(C(=O)N(C)C)(c1ccccc1)c1ccccc1)N1CC[C@@H](NC(=O)c2cc(Cl)cc(Cl)c2)[C@H](O)C1 (relative stereo) [Compound 7] | > 40 mg/kg | 0.31 mg/kg |  |  |
| CC(CC(C(=O)N(C)C)(c1ccccc1)c1ccccc1)N1CC[C@@H](NC(=O)c2cccc(Cl)c2)[C@H](O)C1 (relative stereo) [Compound 10] | > 40 mg/kg | 0.04 mg/kg |  |  |
| CC(CC(C(=O)N(C)C)(c1ccccc1)c1ccccc1)N1CC[C@@H](NC(=O)c2cccc(Cl)c2[N+](=O)[O-])[C@H](O)C1 (relative stereo) [Compound 17] | > 40 mg/kg | 0.63 mg/kg |  |  |
| CC(CC(C(=O)N(C)C)(c1ccccc1)c1ccccc1)N1CC[C@@H](NC(=O)c2ccc(F)cc2[N+](=O)[O-])[C@H](O)C1 (relative stereo) [Compound 19] | > 40 mg/kg | 1.25 mg/kg |  |  |
| Cc1ccc([N+](=O)[O-])c(C(=O)N[C@@H]2CCN(C(C)CC(C(=O)N(C)C)(c3ccccc3)c3ccccc3)C[C@H]2O)c1 (relative stereo) [Compound 21] | > 40 mg/kg | ≤ 0.63 mg/kg |  |  |
| CC(CC(C(=O)N(C)C)(c1ccccc1)c1ccccc1)N1CC[C@@H](NC(=O)c2ccccc2OCc2ccccc2)[C@H](O)C1 (relative stereo) [Compound 29, trans-3-hydroxy-N,N,γ-trimethyl-α,α-diphenyl-4-[[2-(phenylmethoxy)benzoyl]amino]-1-piperidinebutanamide] | ~40 mg/kg | ≤ 0.63 mg/kg |  |  |
| COc1cc(Cl)ccc1C(=O)N[C@@H]1CCN(C(C)CC(C(=O)N(C)C)(c2ccccc2)c2ccccc2)C[C@H]1O (relative stereo) [Compound 30] | ≥ 40 mg/kg | 0.63 mg/kg |  |  |
| COc1c(Cl)cc(Cl)cc1C(=O)N[C@@H]1CCN(C(C)CC(C(=O)N(C)C)(c2ccccc2)c2ccccc2)C[C@H]1O (relative stereo) [Compound 31] | ~40 mg/kg | 0.63 mg/kg |  |  |
| CCCC(=O)c1ccc(OC)c(C(=O)N[C@@H]2CCN(C(C)CC(C(=O)N(C)C)(c3ccccc3)c3ccccc3)C[C@H]2O)c1 (relative stereo) [Compound 34] | > 40 mg/kg | < 2.5 mg/kg |  |  |
| CC(CC(C(=O)N(C)C)(c1ccccc1)c1ccccc1)N1CC[C@@H](NC(=O)c2cccc([N+](=O)[O-])c2Br)[C@H](O)C1 (relative stereo) [Compound 38] | > 40 mg/kg | 2.5 mg/kg |  |  |
| CC(CC(C(=O)N(C)C)(c1ccccc1)c1ccccc1)N1CC[C@@H](NC(=O)c2cc(Cl)ccc2N)[C@H](O)C1 (relative stereo) [Compound 47, trans-4-[(2-amino-5-chlorobenzoyl)amino]-3-hydroxy-N,N,γ-trimethyl-α,α-diphenyl-1-piperidinebutanamide] | ~40 mg/kg | 0.08 mg/kg |  |  |
| COc1cc(N)c(Cl)cc1C(=O)N[C@@H]1CCN(C(C)CC(C(=O)N(C)C)(c2ccccc2)c2ccccc2)C[C@H]1O (relative stereo) [Compound 50, trans-4-[(4-amino-5-chloro-2-methoxybenzoyl)amino]-3-hydroxy-N,N,γ-trimethyl-α,α-diphenyl-1-piperidinebutanamide] | > 40 mg/kg | 2.5 mg/kg |  |  |
| CO[C@@H]1CN(C(C)CC(C(=O)N(C)C)(c2ccccc2)c2ccccc2)CC[C@H]1NC(=O)c1cccc(C(F)(F)F)c1 (relative stereo) [Compound 52, trans-3-methoxy-N,N,γ-trimethyl-α,α-diphenyl-4-[[3-(trifluoromethyl)benzoyl]amino]-1-piperidinebutanamide] | 40 mg/kg | 2.5 mg/kg |  |  |
| COc1cc(N)c(Cl)cc1C(=O)N[C@@H]1CCN(C(C)CC(C(=O)N(C)C)(c2ccccc2)c2ccccc2)C[C@H]1OC (relative stereo) [Compound 53, trans-4-[(4-amino-5-chloro-2-methoxybenzoyl)amino]-3-methoxy-N,N,γ-trimethyl-α,α-diphenyl-1-piperidinebutanamide] | ~40 mg/kg | 2.5 mg/kg |  |  |
| COc1cc(NC(C)=O)c(Cl)cc1C(=O)N[C@@H]1CCN(C(C)CC(C(=O)N(C)C)(c2ccccc2)c2ccccc2)C[C@H]1O (relative stereo) [Compound 64, trans-4-[[4-(acetylamino)-5-chloro-2-methoxybenzoyl]amino]-3-hydroxy-N,N,γ-trimethyl-α,α-diphenyl-1-piperidinebutanamide] | > 40 mg/kg | 2.5 mg/kg |  |  |
| CC(CC(C(=O)N(C)C)(c1ccccc1)c1ccccc1)N1CC[C@@H](NC(=O)c2ccc(F)cc2N)[C@H](O)C1.O (relative stereo) [Compound 67, trans-4-[(2-amino-4-fluorobenzoyl)amino]-3-hydroxy-N,N,γ-trimethyl-α,α-diphenyl-1piperidinebutanamide monohydrate] | > 40 mg/kg | < 0.04 mg/kg |  |  |
| CC(CC(C(=O)N(C)C)(c1ccccc1)c1ccccc1)N1CC[C@@H](NC(=O)c2cccc(N)c2O)[C@H](O)C1 (relative stereo) [Compound 68, trans-4-[(3-amino-2-hydroxybenzoyl)amino]-3-hydroxy-N,N,γ-trimethyI-α,α-diphenyl-1-piperidinebutanamide] | > 40 mg/kg | 0.63 mg/kg |  |  |
| CC(CC(C(=O)N(C)C)(c1ccccc1)c1ccccc1)N1CC[C@@H](NC(=O)c2cccc(Cl)c2N)[C@H](O)C1 (relative stereo) [Compound 69, trans-4-[(2-amino-3-chlorobenzoyl)amino]-3-hydroxy-N,N,γ-trimethyl-α,α-diphenyl-1-piperidinebutanamide] | > 40 mg/kg | < 0.63 mg/kg |  |  |
| CC(CC(C(=O)N(C)C)(c1ccccc1)c1ccccc1)N1CC[C@@H](NC(=O)c2ccc(Cl)cc2N)[C@H](O)C1 (relative stereo) [Compound 70, trans-4-[(2-amino-4-chlorobenzoyl)amino]-3-hydroxy-N,N,γ-trimethyl-α,α-diphenyl 1-piperidinebutanamide monohydrate] | > 40 mg/kg | < 0.63 mg/kg |  |  |
| COc1cc(N)ccc1C(=O)N[C@@H]1CCN(C(C)CC(C(=O)N(C)C)(c2ccccc2)c2ccccc2)C[C@H]1O (relative stereo) [Compound 75, trans-4[(4-amino-2-methoxybenzoyl)amino]-3-hydroxy-N,N,γ-trimethyl-α,α-diphenyl-1-piperidinebutanamide] | > 40 mg/kg | 2.5 mg/kg |  |  |
| CC(CC(C(=O)N(C)C)(c1ccccc1)c1ccccc1)N1CC[C@@H](NC(=O)c2ccccc2O)[C@H](O)C1 (relative stereo) [Compound 77, trans-3-hydroxy-4-[(2-hydroxybenzoyl)-amino]-N,N,γ-trimethyl-α,α-diphenyl-1-piperidinebutanamide] | ≥ 40 mg/kg | 0.16 mg/kg |  |  |
| CC(CC(C(=O)N(C)C)(c1ccccc1)c1ccccc1)N1CCC(NC(=O)c2cccc(C(F)(F)F)c2)C(O)C1 (single isomer, unassigned; (+)) [Compound 57, (+)-(3B,trans)-3-hydroxy-N,N,γ-trimethyl-α,α-diphenyl-4-[[3-(trifluoromethyl)benzoyl]amino]-1-piperidinebutanamide] | > 160 mg/kg |  | 0.31 mg/kg body weight |  |
| CC(CC(C(=O)N(C)C)(c1ccccc1)c1ccccc1)N1CCC(NC(=O)c2cccc(C(F)(F)F)c2)C(O)C1 (single isomer, unassigned; (-)) [Compound 55, (-)-(3A,trans)-3-hydroxy-N,N,γ-trimethyl-α,α-diphenyl-4-[[3-(trifluoromethyl)benzoyl]amino]-1-piperidinebutanamide] |  |  | 1.0 mg/kg body weight | > 160 mg/kg body weight |
